Reference: patent US20220117266A1, “NICKEL CHELATION THERAPY” (priority 2019, published 2022)
Read-outs that look alike come from different tables or passages of the source.

How the values were obtained:
[1] = test system: C. concisus (strain 13826, ATCC BAA-1457); assay: Growth inhibition, solid plates (CFU); type: cell-based, Campylobacter concisus; conditions: BA plates, 24 hours
[2] = test system: C. jejuni (strain NCTC 11168); assay: C. jejuni-chicken colonization experiment; type: in vivo, chickens
Method: Since chickens are natural hosts for C. jejuni, and chicken meat is one of the main sources of campylobacteriosis in humans, it was important to test the efficacy of DMG alone or in combination with copper in this animal model. Two independent trials were conducted, as described in FIG. 22. In both trials, the treatment was administered through ad libitum drinks, starting two to three days before C. jejuni inoculation (with strain NCTC 11168), and going through the end of each experiment. […] Nine days after inoculation with C. jejuni, chickens were euthanized, and their ceca were isolated for bacterial count. […] The treatment was administered two days before inoculation with C. jejuni, and chicken ceca were harvested eight days after inoculation.

[3] = test system: urease activity in K. pneumoniae BAA-2472; assay: Urease assay on cell-free extracts of cells grown with DMG; type: biochemical; conditions: overnight
Method: Thus, similar to hydrogenase inhibition, it appears DMG-mediated Ni chelation can be used to efficiently block urease activity in Klebsiella.
Urease assays. […] Cells were pelleted at 6,000 rpm for 30 minutes and washed three times with PBS (pH 7.4). Cells were standardized to an optical density (OD600) of 4.5, added to sterile glass beads (0.1 mm diameter, Biospec Products, Bartlesville, Okla.) at a 100% w/v ratio, and frozen at −80° C. The bead and cell mixture was thawed at room temperature and vortexed at 3,200 rpm for six minutes with one minute intervals on ice. The mixture was pelleted at 14,000 rpm for two minutes and the cell-free supernatant was assayed for urease activity using the phenol-hypochlorite method (Weatherburn et al. 1967. Analytical Chemistry 39:971-974). Protein concentration was determined using the BCA protein kit (Thermo Fisher Pierce, Rockford, Ill., USA). Urease activity is expressed as μmoles of NH3 produced per minute per mg of total protein.

[4] = test system: S. Typhimurium (ATCC 14028); assay: DMG growth inhibition in liquid culture (CFU/mL); type: cell-based, Salmonella enterica serovar Typhimurium
Method: (§1) Growth conditions. All strains were routinely grown on LB agar plates or in LB broth. For DMG-growth inhibition study, S. Typhimurium strains ATCC 14028 and ATCC 700408 were grown in M9 minimal medium (M9 minimal salts, 0.4% glucose, 2 mM MgSO4, 0.1 mM CaCl2), and 1 μg/mL thiamine, pH 7.2). K. pneumoniae was grown in “W-U” medium, modified from Bender et al. 1977 129:1001-1009, containing 60 mM K2HPO4, 33 mM KH2PO4, 0.4 mM MgSO4, 0.4% Glucose, and 5 mM urea (instead of KNO3), pH 7.4. Briefly, overnight cultures of S. Typhimurium and K. pneumoniae were harvested, spun at 14,000 rpm for five minutes, washed once with either M9 (S. Typhimurium) or W-U (K. pneumoniae) and resuspended in either M9 (S. Typhimurium) or W-U (K. pneumoniae). […] Cells were incubated for 24 hours at 37° C. with shaking at 250 rpm, then serially diluted in PBS and 5 μL of each dilution was spotted in triplicate on LB plate. Colony forming units (CFU) were counted after 16 hours at 37° C. Each growth experiment was done at least three times.

[5] = test system: MDR S. Typhimurium (ATCC 700408); assay: DMG growth inhibition in liquid culture (CFU/mL); type: cell-based, Salmonella enterica serovar Typhimurium
Method: as §1

Aβ40 peptide = Aβ40 peptide (Homo sapiens, UniProt P05067); assay: Thioflavin T (ThT)-based Aβ40 aggregation assay; type: biochemical; set-up: purchased rPeptides, Watkinsville, Ga., USA kit #A-1180-1; host or cells: E. coli; conditions: for remaining activity at 100 µM: DMG 100 μM; for remaining activity at 100 µM / remaining activity at 500 µM / remaining activity at 1000 µM: read-out: Relative Aβ40 aggregation rate (% control); for remaining activity at 500 µM: DMG 500 μM; for remaining activity at 1000 µM: DMG 1000 μM
Sequence of Aβ40 peptide (P05067 672-711): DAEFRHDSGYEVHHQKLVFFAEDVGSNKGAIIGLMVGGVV
Method: Amyloid Beta aggregation. […] This kit contained human recombinant Aβ40 peptide (>97% pure, as determined by manufacturer's HPLC) with the following sequence […] (SEQ ID NO:1), as provided by the manufacturer. […] The aggregation of Aβ40, was shown by the increase in fluorescence (lex=440 nm/lem=485 nm) over time, was followed for 60 min or 120 min, with reading every three or five min, using a Synergy MX reader (Biotek, Winooski, Vt.). A ThT-only background control (no Aβ40 peptide) was included in triplicate in all experiments and subtracted from all readings. The aggregation rate, defined as the increase in fluorescence per min (RFU/min), was calculated by using the formula [A(440,485) at T40min)−A(440,485) at T20min]/20.

[6] = Experiment 1, ad libitum CuSO4 (0.2 mM) + DMG (10 mM), total n=6, 9 days p.i.
[7] = Experiment 2, ad libitum CuSO4 (0.2 mM) + DMG (15 mM), total n=5, 8 days p.i.
[8] = Experiment 2, ad libitum DMG (15 mM), total n=7, 8 days p.i.
[9] = first trial, DMG (10 mM) combined with CuSO4 (0.2 mM)
[10] = experiment B, no supplemental metal
[11] = experiment C, no supplemental metal

**Q.** `CC(=NO)C(C)=NO` [DMG, dimethylglyoxime] was tested. Which “effect on growth (CFUs, colony size)” value ([1]; DMG 2 mM) did it give?
**A.** bacteriostatic

**Q.** What about the “effect on growth (CFUs)” value ([1]; DMG 4 mM, no CFU detected (detection limit: 200 CFUs)) of the same compound?
**A.** bactericidal

**Q.** And the “C. jejuni Average CFUs per g of cecum (x10^8)” value (shortened to “C. jejuni Average CFUs per g”) ([2]; Experiment 1, ad libitum CuSO4 (0.2 mM) + DMG (10 mM), 9 days p.i.)?
**A.** 1.12 x10^8 CFUs per g of cecum

**Q.** What about the “Chickens Cj-free (n=)” value [2, 6] of the same compound?
**A.** 2

**Q.** What about the “Chickens Colonized (n=)” value [2, 6] of the same compound?
**A.** 4

**Q.** What about the “C. jejuni Average CFUs per g” value ([2]; Experiment 2, ad libitum CuSO4 (0.2 mM) + DMG (15 mM), 8 days p.i.) of the same compound?
**A.** 1.99 x10^8 CFUs per g of cecum

**Q.** And the “Chickens Cj-free (n=)” value [2, 7]?
**A.** 0

**Q.** What about the “Chickens Colonized (n=)” value [2, 7] of the same compound?
**A.** 5

**Q.** What about the “C. jejuni Average CFUs per g” value ([2]; Experiment 2, ad libitum DMG (15 mM), 8 days p.i.) of the same compound?
**A.** 2.38 x10^8 CFUs per g of cecum

**Q.** And the “Chickens Cj-free (n=)” value [2, 8]?
**A.** 1

**Q.** And the “Chickens Colonized (n=)” value [2, 8]?
**A.** 6

**Q.** What about the “chickens in which C. jejuni was not recovered” value ([2]; first trial, Cu-DMG treated group (n=6)) of the same compound?
**A.** 33%

**Q.** And the “decrease in bacterial count in the cecum compared to the copper-only control” value [2, 9]?
**A.** 5 fold

**Q.** What about the “decrease in bacterial count in the cecum compared to the water-only control” value [2, 9] of the same compound?
**A.** 3 fold

**Q.** And the “decrease in bacterial burden compared to the water control” value ([2]; second trial, DMG (15 mM) combined with CuSO4 (0.2 mM))?
**A.** approximately 3.5 fold

**Q.** What about the “less bacterial colonization of the cecum compared to the water only control” value ([2]; second trial, DMG only (15 mM)) of the same compound?
**A.** approximately 3 fold

**Q.** What about the Urease activity ([3]; DMG 1 mM in LB broth) of the same compound?
**A.** 0.05 ± 0.01 μmoles of NH3 produced per minute per mg of total protein

**Q.** And the Urease activity ([3]; DMG 2 mM in LB broth)?
**A.** 0.03 ± 0.01 μmoles of NH3 produced per minute per mg of total protein

**Q.** And the “effect on bacterial growth” value ([4]; DMG at 2.5 mM, 5 mM, or 7.5 mM)?
**A.** no measurable effect

**Q.** What about the inhibition at 10000 µM ([4]; Salmonella enterica, 24 h) of the same compound?
**A.** > 100%

**Q.** And the “effect on bacterial growth” value ([5]; DMG at 2.5 mM, 5 mM, or 7.5 mM)?
**A.** no measurable effect

**Q.** And the inhibition at 10000 µM ([5]; Salmonella enterica, 24 h)?
**A.** > 100%

**Q.** And the “inhibition of Aβ40 aggregation” value (Aβ40 peptide; 500 mM or 1000 mM DMG (so in the source), no supplemented metal)?
**A.** partial or full inhibition

**Q.** And the remaining activity at 100 µM (Aβ40 peptide; experiment A, Cu 10 μM)?
**A.** 54 ± 12%

**Q.** And the remaining activity at 100 µM (Aβ40 peptide; experiment A, Ni 10 μM)?
**A.** 58 ± 11%

**Q.** And the remaining activity at 100 µM (Aβ40 peptide; experiment A, Zn 10 μM)?
**A.** 457 ± 39%

**Q.** What about the remaining activity at 100 µM (Aβ40 peptide; experiment A, no supplemental metal) of the same compound?
**A.** 33 ± 2%

**Q.** What about the remaining activity at 100 µM (Aβ40 peptide; experiment B, Ni 100 μM) of the same compound?
**A.** 410 ± 91%

**Q.** And the remaining activity at 100 µM (Aβ40 peptide; [10])?
**A.** 15 ± 14%

**Q.** And the remaining activity at 500 µM (Aβ40 peptide; experiment B, Ni 100 μM)?
**A.** < 1%

**Q.** And the remaining activity at 500 µM (Aβ40 peptide; experiment B, Zn 100 μM)?
**A.** 833 ± 156%

**Q.** What about the remaining activity at 500 µM (Aβ40 peptide; [10]) of the same compound?
**A.** < 1%

**Q.** What about the remaining activity at 1000 µM (Aβ40 peptide; experiment B, Ni 100 μM) of the same compound?
**A.** < 1%

**Q.** What about the remaining activity at 1000 µM (Aβ40 peptide; experiment B, Zn 100 μM) of the same compound?
**A.** 328 ± 63%

**Q.** And the remaining activity at 1000 µM (Aβ40 peptide; [10])?
**A.** < 1%

**Q.** What about the remaining activity at 100 µM (Aβ40 peptide; experiment C, Cu 100 μM) of the same compound?
**A.** 66 ± 15%

**Q.** And the remaining activity at 100 µM (Aβ40 peptide; [11])?
**A.** 48 ± 8%

**Q.** And the remaining activity at 500 µM (Aβ40 peptide; experiment C, Cu 100 μM)?
**A.** 49 ± 8%

**Q.** What about the remaining activity at 500 µM (Aβ40 peptide; [11]) of the same compound?
**A.** 15 ± 5%

**Q.** And the remaining activity at 1000 µM (Aβ40 peptide; experiment C, Cu 100 μM)?
**A.** 40 ± 3%

**Q.** What about the remaining activity at 1000 µM (Aβ40 peptide; [11]) of the same compound?
**A.** 21 ± 10%

**Q.** What about the “inhibition of Aβ40 aggregation” value (Aβ40 peptide; increasing amounts of DMG in presence of 100 mM Cu^2+ or Zn^2+ (so in the source)) of the same compound?
**A.** partial inhibition

**Q.** What about the “inhibition of Aβ40 aggregation” value (Aβ40 peptide; increasing amounts of DMG in presence of 100 mM Ni^2+ (so in the source)) of the same compound?
**A.** Complete inhibition

**Q.** What about the “Aβ40 peptide aggregation under all pHs tested” value (Aβ40 peptide; pH 6.5, 7.5 or 8.5, 25 mM Aβ40, CuSO4 25 mM, ZnSO4 10 mM or DMG 100 mM (so in the source)) of the same compound?
**A.** negligible
